Assay results reported in patent US7087721B2, “Compositions, kits and treating methods for alteration cell-cell adhesion, transport, or permeation properties of tissues” (priority 2003, dated 2006).
Entries after “also recorded” stand apart in the source; their conditions may differ.

What was measured:
Type in all cases: cell-based, human
[1] = test system: TMG-expressed A2058 cells; test: Carbohydrate specificity for TM-mediated cell adhesion, TMG cells; conditions: 37° C. overnight, light microscopy
Protocol: A variety of simple carbohydrate (D-mannose, D-galactose, D-lactose, D-glucose, D-xylose), heparin, LMW heparin, chondroitin sulfate A, chondroitin sulfate B, and chondroitin sulfate C were tested to determine their ability to block cell-cell adhesion of the TMG cells. In these experiments, the carbohydrate to be tested was added to the cell monolayer to compare its ability to compete with the TMG. The plates were then incubated at 37° C. for overnight and examined by light microscopy (Leica Model DM IL).
FIG. 8. Effect of different carbohydrates on the cell adhesion of TMG cells. TMG-expressed A2058 cells were challenged with 20 mg/ml of monosaccharides (including D-glucose, D-galactose, D-lactose, D-xylose, D-mannose), 20 mg/ml of chondroitin sulfate A, B, C, or 15 mg/ml of heparin, LMW heparin. Following incubation at 37° C. overnight, images were obtained. Each image is representative of the observations from three separate experiments.

[2] = test system: A2058TMG cells; test: Calcium-switch method, A2058TMG cells; conditions: 4 mM EGTA, 40 min
Protocol: (§1) Cells were grown overnight on glass coverslips at a constant density (5×10^4 cells/well) in 24 well culture plates. The cells were serum-starved for 8 h and Ca^2+ was removed by incubation with DMEM medium containing 4 mM ethyleneglycol-bis-(Amino-Ethyl-Ether) N,N,N′,N′-tetraacetic acid (EGTA) and 1 mM MgCl2 at 37° C. After 1 h, the DMEM medium containing 1.8 mM Ca^2+ was added to replace the Ca^2+-free medium. In control experiments, cells received fresh media in the absence of EGTA. In selected experiments, 10 μg/ml of anti-TM lectin-like antibody, 10 μg/ml of isotype-specific control antibody or anti-E-cadherin antibody (20 μg/ml) was added to the Ca^2+-containing medium.
(§2) FIG. 6. TM participates in Ca^2+-dependent cell-cell adhesion. A2058TMG (A–E) and HaCaT cells (F–J) were left untreated (A, F) or treated with 4 mM EGTA for 40 min (B–E, G–J). The EGTA containing medium was then replaced with Ca^2+-containing medium in the presence of 10 μg/ml control IgG (C, H) for 1 h. After treatment with EGTA, cells were incubated for 1 h in medium containing 1.8 mM Ca^2+ and 10 ? g/ml function-blocking anti-lectin-like antibody (D, I), or anti-E-cadherin antibody (E, J). Green fluorescence shown in panels A to E is the GFP-tagged TM proteins, whereas panels F to J indicate the TM distribution by anti-EGF-like domain antibody detected with tetramethylrhodamine-conjugated anti-mouse antibody. […]

[3] = test system: HaCaT cells; test: Calcium-switch method, HaCaT cells; conditions: 4 mM EGTA, 40 min
Protocol: as §1, §2

Compound	ability to disperse the close clustering morphology of TMG culture cells ([1]; 20 mg/ml)	other results
O=C[C@H](O)[C@@H](O)[C@@H](O)[C@H](O)CO [D-galactose]	only mannose was found to be effective	–
O=C[C@H](O)[C@@H](O)[C@H](O)[C@H](O)CO [D-glucose]	only mannose was found to be effective	–
OC[C@H]1O[C@@H](O[C@H]2[C@H](O)[C@@H](O)C(O)O[C@@H]2CO)[C@H](O)[C@@H](O)[C@H]1O (stereo partly drawn) [D-lactose]	only mannose was found to be effective	–
O=C[C@@H](O)[C@@H](O)[C@H](O)[C@H](O)CO [D-mannose]	effective in inducing of cell dispersion; also recorded: highest dispersing effect	–
O=C[C@H](O)[C@@H](O)[C@H](O)CO [D-xylose]	only mannose was found to be effective	–
O=C(O)CN(CCOCCOCCN(CC(=O)O)CC(=O)O)CC(=O)O [EGTA, ethyleneglycol-bis-(Amino-Ethyl-Ether) N,N,N′,N′-tetraacetic acid]	–	cell-to-cell contacts in EGTA-containing medium [2]: disrupted; cell-to-cell contacts in EGTA-containing medium [3]: disrupted
chondroitin 4-sulfate [chondroitin sulfate A]	could induce cell dispersion	–
chondroitin 6-sulfate [chondroitin sulfate C]	could induce cell dispersion	–
dermatan sulfate [chondroitin sulfate B]	no effect	–
heparin	–	ability to disperse the close clustering morphology of TMG culture cells ([1]; 15 mg/ml): minor inhibitory effect on the cell adhesion
